Patent publication US7498326B2, “Compounds” (Glaxo Group Limited, priority 2002, dated 2009)
Where a name gives a salt, the structure may show the parent alone.

Assay: MIC of test compounds against various organisms
Format: cell-based
Protocol: The MIC (μg/ml) of test compounds against various organisms was determined including: S. epidermidis CL7, S. aureus WCUH29, S. pneumoniae 1629, S. pyogenes CN10, H. influenzae ATCC 49247, E. faecalis 2, M. catarrhalis Ravasio, E. coli 7623. Examples 1, 5, 6, 7, 8, 11, 13 have an MIC≦2 μg/ml versus all these organisms.

[1] = versus all these organisms: S. epidermidis CL7, S. aureus WCUH29, S. pneumoniae 1629, S. pyogenes CN10, H. influenzae ATCC 49247, E. faecalis 2, M. catarrhalis Ravasio, E. coli 7623

| SMILES | MIC [1] | MIC (versus some of these organisms (which of the eight listed strains is not stated)) |
| --- | --- | --- |
| O=C1CSc2ccc(CN[C@H]3CCN(CCc4ccnc5ccc6c(c45)OCCO6)C[C@H]3F)nc2N1 [Example 4, 6({(3R,4S)-1-[2-(2,3-Dihydro-[1,4]dioxino[2,3-f]quinolin-10-yl)-ethyl]-3-fluoro-piperidin-4-ylamino}-methyl)-4H-pyrido[3,2-b][1,4]thiazin-3-one] | ≤ 16 µg/mL |  |
| COc1cnc2cccc(C(O)CN3CCC(NCc4ccc5c(n4)NC(=O)CS5)CC3)c2n1 (racemic) [Example 5, 6-{[(1-{(2R/S)-2-hydroxy-2-[3-(methyloxy)-5-quinoxalinyl]ethyl}-4-piperidinyl)amino]methyl}-2H-pyrido[3,2-b][1,4]thiazin-3(4H)-one dihydrochloride] | ≤ 2 µg/mL |  |
| COc1ccc2cccc(C(O)CN3CCC(NCc4ccc5c(n4)NC(=O)CO5)CC3)c2n1 (stereo not drawn) [Example 8, 6-{[(1-{2-hydroxy-2-[2-(methyloxy)-8-quinolinyl]ethyl}4-piperidinyl)amino]methyl}-2H-pyrido[3,2-b][1,4]oxazin-3(4H)-one] | ≤ 2 µg/mL |  |
| N#Cc1ccc2nccc(CCN3CC[C@H](NCc4ccc5c(n4)NC(=O)CS5)[C@H](O)C3)c2c1 [Example 11, 4-[2-(3-hydroxy-4-{([(3-oxo-3,4-dihydro-2H-pyrido[3,2-b][1,4]thiazin-6-yl)methyl]amino}-1-piperidinyl)ethyl]-6-quinolinecarbonitriledihydrochloride (E2 isomer)] | ≤ 2 µg/mL |  |
| Clc1cnc2ccc3c(c2c1CCN1CCC(NCc2cc4c(cn2)OCCO4)CC1)OCCO3 [Example 7, {1-[2-(9-Chloro-2,3-dihydro-[1,4]dioxino[2,3-f]quinolin-10-yl)-ethyl]-piperidin-4-yl}-(2,3-dihydro-[1,4]dioxino[2,3-c]pyridin-7-ylmethyl)-amine dihydrochloride] | ≤ 2 µg/mL |  |
| N#Cc1ccc2nccc(CCN3CCC(NCc4ccc5c(n4)NC(=O)CO5)CC3)c2c1 [Example 1, 4-2-{4-[(3-Oxo-3,4-dihydro-2H-pyrido[3,2-b][1,4]oxazin-6-ylmethyl)-amino]-piperidin-1-yl}-ethyl)-quinoline-6-carbonitrile dihydrochloride] | ≤ 2 µg/mL |  |
| N#Cc1ccc2nccc(CCN3CC[C@H](NCc4ccc5c(n4)NC(=O)CO5)[C@H](O)C3)c2c1 (stereo in doubt) [Example 12, 4-[2-(3-hydroxy-4-{[(3-oxo-3,4-dihydro-2H-pyrido[3,2-b][1,4]oxazin-6-yl)methyl]amino}-1-piperidinyl)ethyl]-6-quinolinecarbonitrile (E1 isomer)] | ≤ 16 µg/mL |  |
| O=C1CSc2ccc(CNC3CCN(CCc4ccnc5ccccc45)CC3)nc2N1 [Example 9, 6-[({1-[2-(4-quinolinyl)ethyl]-4-piperidinyl}amino)methyl]-2H-pyrido[3,2-b][1,4]thiazin-3(4H)-one dihydrochloride] |  | ≤ 16 µg/mL |
| COc1cnc2cccc(C(O)CN3CCC(NCc4cc5c(cn4)OCCO5)CC3)c2n1 (stereo not drawn) [Example 6, (1R/S)-2-{4-[(2,3-dihydro[1,4]dioxino[2,3-c]pyridin-7-ylmethyl)amino]1-1-piperidinyl}-1-[3-(methyloxy)-5-quinoxalinyl]ethanol dihydrochloride] | ≤ 2 µg/mL |  |
